# Values quoted from earlier work in US10813571B2, “Devices and methods for non-invasive monitoring of substance in a body” (TATA C[…] LIMITED, priority 2015, dated 2020).
# Conditions: in the user's (smoker's) body; as known in the art
smiles,measurement,value
CN1CCCC1c1cccnc1 (stereo not shown) [nicotine],half-life of nicotine in the body (t1/2),1 to 2 h
